Assay results: patent US5756546A (priority 1994, dated 1998)
Structures can show the parent of a compound that is named as a salt.

Key:
[1] = whether or not linked with L-arginine
[2] = known salts in solution; cited from earlier work

pH imposed in solution compared with the alkali metal salts (in words) [1] | SMILES | pH imposed in solution (in words) [2]
markedly less alkaline pH | CS(=O)(=O)Nc1ccc([N+](=O)[O-])cc1Oc1ccccc1 [nimesulide-L-lysine salt] | –
– | CS(=O)(=O)Nc1ccc([N+](=O)[O-])cc1Oc1ccccc1 [sodium salt of nimesulide] | relatively alkaline pH
